Tested on: Cercospora beticola (CERCBE), leaf spot of sugar beet
Test: Field assessment of Cercospora beticola (CERCBE) in sugar beets
Type: in vivo
Settings: for % Control CERCBE (based on AUDPC): sugar beet field, natural infection
Description: Field Assessment of Cercospora beticola (CERCBE) in Sugar Beets:
A fungicidal treatment containing an EC formulation of compound I by itself and in combination with four adjuvants was sprayed on sugar beet plants (BEAVA, Corvina variety) six times during the course of 7 weeks ([…]) under natural infection with CERCBE. The commercial standard used in the study was difenoconazole (Score) and was applied at 100 g ai/ha. The treatment was part of an experimental trial designed as a randomized complete block with four replications and a plot of approximately 1×2 m. Compound I was applied at water volume of 400 L/ha, using a backpack precision plot sprayer (BKPCKAIR, EVEN FAN TEEJET TP 8004EVS Nozzle, 1 m boom width) and pressurized at 250 kPa.
Disease severity was recorded as a percentage of visual diseased foliage on whole plot. Cercospora leaf spot infection was assessed five times, 6 days after application A (DAAA); 6 DAAC; 12 DAAB; and 7 and 21 DAAF. The disease infection was recorded following EPPO PP 1/1 (4) guideline prescriptions. Area under the disease progress curve (AUDPC) was calculated for each plot using the sets of recorded severity data. Relative AUDPC (% control based on AUDPC) was calculated as percent of the nontreated control.

| Structure (SMILES) | CERCBE control compared with difenoconazole (statistical) (100 g ai/ha in 0.15% Phase II, Ethomeen, Lutensol or Agnique BP-420, ANOVA and Tukey's test (p=0.10)) | level of control of CERCBE compared with difenoconazole (numerical) (100 g ai/ha in Agnique BP-420 (50% EC formulation at 0.3% v/v) or 0.15% Lutensol) | fungicidal effect on Cercospora beticola (leaf spot of sugar beet, general statement) | % Control CERCBE (based on AUDPC) (50 g ai/ha, adjuvant Agnique BP-420 (50% w/w at 0.3% v/v)) | % Control CERCBE (based on AUDPC) (50 g ai/ha, no adjuvant) | % Control CERCBE (based on AUDPC) (100 g ai/ha, adjuvant Agnique BP-420 (50% w/w at 0.3% v/v)) | % Control CERCBE (based on AUDPC) (100 g ai/ha, adjuvant Ethomeen T18H (0.15% v/v)) | % Control CERCBE (based on AUDPC) (100 g ai/ha, adjuvant Lutensol TDA 9 (0.15% v/v)) | % Control CERCBE (based on AUDPC) (100 g ai/ha, adjuvant Phase II (0.15% v/v)) | % Control CERCBE (based on AUDPC) (100 g ai/ha, no adjuvant) | % Control CERCBE (based on AUDPC) (150 g ai/ha, adjuvant Agnique BP-420 (50% w/w at 0.3% v/v)) | % Control CERCBE (based on AUDPC) (150 g ai/ha, no adjuvant) | % Control CERCBE (based on AUDPC) (100 g ai/ha, Score (commercial standard)) |
| --- | --- | --- | --- | --- | --- | --- | --- | --- | --- | --- | --- | --- | --- |
| N#Cc1ccc(Oc2ccc(C(F)(F)C(O)(Cn3nc[nH]c3=S)c3ccc(F)cc3F)nc2)cc1 (stereo not shown) [Compound I, 4-((6-(2-(2,4-difluorophenyl)-1,1-difluoro-2-hydroxy-3-(5-thioxo-4,5-dihydro-1H-1,2,4-triazol-1-yl)propyl)pyridin-3-yl)oxy)benzonitrile] | statistically equivalent to that of the commercial standard difenoconazole at 100 g ai/ha | numerically equivalent to that of difenoconazole at 100 g ai/ha | significant fungicidal effect | B (51-74) | B (51-74) | A (75-100) | B (51-74) | A (75-100) | B (51-74) | B (51-74) | A (75-100) | B (51-74) | – |
| CC1COC(Cn2cncn2)(c2ccc(Oc3ccc(Cl)cc3)cc2Cl)O1 (stereo not shown) [Difenoconazole, difenoconazole, reference compound] | – | – | – | – | – | – | – | – | – | – | – | – | A (75-100) |
